Source: ChEMBL document CHEMBL3243946, “A comparison of the antiserotonin, antihistamine, and anticholinergic activity of cyproheptadine with analogues having furan nuclei fused to the 10,11-vinylene bridge” (1977)
Calls of active or inactive are those of the source. The calls are words filed in the database; no cut-off is given here.

Columns and labels:
Rattus norvegicus [1] = assay: Antiserotonin activity in Sprague-Dawley rat assessed as inhibition of feet weight gain at 10 mg/kg, sc after 30 mins; type: functional, organism-based; parameters: dose 10 mg/kg
Mus musculus [2] = assay: Anticholinergic activity in Carworth CF1 mouse assessed as dose required to produce pupil dilation to 1.5 micrometer units in 50% mouse at 324 mg/kg, ip; type: functional, organism-based; parameters: dose 324 mg/kg
Cavia porcellus [3] = assay: Antihistamine activity in Duncan-Hartley guinea pig assessed as protection of animal from death caused by histamine aerosol-induced bronchoconstriction at 12.5 mg/kg, ip; type: functional, organism-based; parameters: dose 12.5 mg/kg
Mus musculus [4] = assay: Anticholinergic activity in ip dosed Carworth CF1 mouse assessed as dose required to produce pupil dilation to 1.5 micrometer units in 50% mouse; type: functional
Rattus norvegicus [5] = assay: Antiserotonin activity in sc dosed Sprague-Dawley rat assessed as inhibition of feet weight gain after 30 mins; details: 0.5 h
Cavia porcellus [6] = species: Cavia porcellus; assay: animal or person; type: functional; details: Duncan-Hartley, ip
Description: Antihistamine activity in ip dosed Duncan-Hartley guinea pig assessed as protection of animal from death caused by histamine aerosol-induced bronchoconstriction

Mus musculus [7] = assay: Anticholinergic activity in ip dosed Carworth CF1 mouse assessed as pupil dilation to 15 micrometer units in 100% mouse; type: functional

| Compound | inhibition (Rattus norvegicus [1]) | inhibition (Mus musculus [2]) | inhibition (Cavia porcellus [3]) | ED (Mus musculus [4]) | ED50 (Rattus norvegicus [5]) | ED50 (Cavia porcellus [6]) | ED (Mus musculus [7]) |
| --- | --- | --- | --- | --- | --- | --- | --- |
| c1ccc2c(c1)C(=C1CCNCC1)c1ccccc1-c1cocc1-2 | inactive | inactive | inactive |  |  |  |  |
| Cc1occ2c1-c1ccccc1C(=C1CCN(C)CC1)c1ccccc1-2 | inactive |  | inactive | 4 mg/kg |  |  |  |
| CN1CCC(=C2c3ccccc3C=Cc3ccccc32)CC1.Cl [CYPROHEPTADINE HYDROCHLORIDE] |  |  |  | 4 mg/kg | 0.02 mg/kg | 0.05 mg/kg |  |
| CN1CCC(=C2c3ccccc3C3=C(c4ccccc42)C2C=CC3O2)CC1 | inactive | inactive | inactive |  |  |  |  |
| C1=CC2OC1C1=C2c2ccccc2C(=C2CCNCC2)c2ccccc21 | inactive | inactive | inactive |  |  |  |  |
| CN1CCC(=C2c3ccccc3C3COCC3c3ccccc32)CC1 (stereo not drawn) | inactive | inactive | inactive |  |  |  |  |
| CN1CCC(=C2c3ccccc3C3=C(C(=O)OC3)c3ccccc32)CC1.O=C(O)C(=O)O | inactive |  |  |  |  | 9.7 mg/kg | <4 mg/kg |
| CN1CCC(=C2c3ccccc3C3=C(c4ccccc42)C2(C)C=CC3O2)CC1 (stereo not drawn) | inactive | inactive | inactive |  |  |  |  |
| CN1CCC(=C2c3ccccc3C(CO)=C(CO)c3ccccc32)CC1 | inactive |  |  | 4 mg/kg |  | 12.5 mg/kg |  |
| CN1CCC(=C2c3ccccc3-c3cocc3-c3ccccc32)CC1 | inactive |  | inactive | 36 mg/kg |  |  |  |
| CN1CCC(=C2c3ccccc3C3=C(c4ccccc42)C2CCC3O2)CC1 | inactive | inactive | inactive |  |  |  |  |
